Laboratory results published in patent US20240368135A1 (VERTEX PHARMACEUTICALS INCORPORATED, priority 2021, published 2024).
pIC50: −log10 of the molar value. Like-named read-outs stand apart in the source and are kept apart here.

Molecular target: human NaV 1.8 (Homo sapiens, UniProt Q9Y5Y9)
Assay: E-VIPR assay detecting and measuring NaV inhibition properties
Type: cell-based
Conditions: HEK cells expressing truncated human NaV 1.8
Source text: Sodium ion channels are voltage-dependent proteins that can be activated by inducing membrane voltage changes by applying electric fields. The electrical stimulation instrument and methods of use, referred to as E-VIPR, are described in International Publication No. WO 2002/008748 A3 and C.-J. Huang et al. Characterization of voltage-gated sodium channel blockers by electrical stimulation and fluorescence detection of membrane potential, 24 Nature Biotech. 439-46 (2006), both of which are incorporated by reference in their entirety. The instrument comprises a microtiter plate handler, an optical system for exciting the coumarin dye while simultaneously recording the coumarin and oxonol emissions, a waveform generator, a current- or voltage-controlled amplifier, and parallel electrode pairs that are inserted into assay plate wells. Under integrated computer control, this instrument passes user-programmed electrical stimulus protocols to cells within the wells of the microtiter plate.
16-20 hours prior to running the assay on E-VIPR, HEK cells expressing a truncated form of human NaV 1.8 with full channel activity were seeded into microtiter 384-well plates, pre-coated with matrigel, at a density of 25,000 cells per well. 2.5-5% KIR2.1 Bacmam virus was added to the final cell suspension before seeding into cell plates. HEK cells were grown in Dulbecco's Modified Eagle's Medium (DMEM) supplemented with 10% FBS (Fetal Bovine Serum, qualified; Sigma #F4135), 1% NEAA (Non-Essential Amino Acids, Gibco #11140), 1% HEPES (Gibco #15630), 1% Pen-Strep (Penicillin-Streptomycin; Gibco #15140) and 5 μg/ml Blasticidin (Gibco #R210-01). Cells were expanded in vented cap cell culture flasks, with 90-95% humidity and 5% CO2.
Human Serum (HS, Millipore #S1P1-01KL, or Sigma SLBR5469V and SLBR5470V as a 50%/50% mixture, for 25% assay final concentration) • Bath 1 Buffer: • Sodium Chloride 160 mM (9.35 g/L), Potassium Chloride, 4.5 mM (0.335 g/L), Glucose 10 mM (1.8 g/L), Magnesium Chloride (Anhydrous) 1 mM (0.095 g/L), Calcium Chloride 2 mM (0.222 g/L), HEPES 10 mM (2.38 g/L) in water. • Na/TMA C1 Bath 1 Buffer: • Sodium Chloride 96 mM (5.61 g/L), Potassium Chloride 4.5 mM (0.335 g/L), Tetramethylammonium (TMA)-Cl 64 mM (7.01 g/L), Glucose 10 mM (1.8 g/L), Magnesium Chloride (Anhydrous) 1 mM (0.095 g/L), Calcium Chloride 2 mM (0.222 g/L) HEPES 10 mM (2.38 g/L) in water. • Hexyl Dye Solution (2× concentration): • Bath 1 Buffer containing 0.5% P-cyclodextrin (made fresh prior to each use, Sigma #C4767), 8 μM CC2-DMPE and 2 μM DiSBAC6(3). The solution was made by adding 10% Pluronic F127 stock equal to combined volumes of CC2-DMPE and DiSBAC6(3). The order of preparation was first mix Pluronic and CC2-DMPE, then add DiSBAC6(3), then while vortexing add Bath 1/p-Cyclodextrin.
Compound Loading Buffer (2× concentration): Na/TMA C1 Bath1 Buffer containing HS (omitted in experiments run in the absence of human serum (HS)) 50%, VABSC-1 1 mM, BSA 0.2 mg/ml (in Bath-1), KCl 9 mM, DMSO 0.625%.
1) To reach the final concentration in each well, 375 nL of each compound was pre-spotted (in neat DMSO) into polypropylene compound plates at 240× desired final concentration from an intermediate stock concentration of 0.075 mM, in an 11 point dose response, 3-fold dilution, resulting in a top dose of 300 nM final concentration in the cell plate. Vehicle control (neat DMSO), and positive control (an established NaV1.8 inhibitor, 25 μM final in assay in DMSO) were added manually to the outermost columns of each plate respectively. The compound plate was backfilled with 45 μL per well of Compound Loading Buffer resulting in a 240 fold dilution of compound following a 1:1 transfer of compound into the cell plate (see Step 6). Final DMSO concentration for all wells in the assay was 0.625% (0.75% DMSO was supplemented to the Compound Loading Buffer for a final DMSO concentration of 0.625%). […]

[1] = no human serum, read-out: IC50 in the E-VIPR Assay
[2] = in the presence of human serum (compound numbers followed by *), read-out: IC50 in the E-VIPR Assay, performed in the presence of human serum

Sequence of human NaV 1.8 (Q9Y5Y9 126-399 limits assumed): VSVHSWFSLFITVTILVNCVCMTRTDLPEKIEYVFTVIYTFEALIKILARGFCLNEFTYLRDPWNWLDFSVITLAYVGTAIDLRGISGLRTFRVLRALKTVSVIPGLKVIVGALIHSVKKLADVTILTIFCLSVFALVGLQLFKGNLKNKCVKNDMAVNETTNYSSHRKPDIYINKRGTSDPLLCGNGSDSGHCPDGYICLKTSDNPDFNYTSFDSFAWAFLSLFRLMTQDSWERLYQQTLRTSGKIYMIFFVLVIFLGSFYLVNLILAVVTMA
Sequence of human NaV 1.8 (Q9Y5Y9 660-890 limits assumed): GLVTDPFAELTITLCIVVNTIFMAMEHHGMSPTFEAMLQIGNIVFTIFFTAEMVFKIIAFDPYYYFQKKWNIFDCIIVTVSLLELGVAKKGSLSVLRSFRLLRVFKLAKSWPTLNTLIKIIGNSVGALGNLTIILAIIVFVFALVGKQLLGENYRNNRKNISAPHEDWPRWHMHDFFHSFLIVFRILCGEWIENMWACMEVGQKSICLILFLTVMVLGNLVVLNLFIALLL
Sequence of human NaV 1.8 (Q9Y5Y9 1148-1722 limits assumed): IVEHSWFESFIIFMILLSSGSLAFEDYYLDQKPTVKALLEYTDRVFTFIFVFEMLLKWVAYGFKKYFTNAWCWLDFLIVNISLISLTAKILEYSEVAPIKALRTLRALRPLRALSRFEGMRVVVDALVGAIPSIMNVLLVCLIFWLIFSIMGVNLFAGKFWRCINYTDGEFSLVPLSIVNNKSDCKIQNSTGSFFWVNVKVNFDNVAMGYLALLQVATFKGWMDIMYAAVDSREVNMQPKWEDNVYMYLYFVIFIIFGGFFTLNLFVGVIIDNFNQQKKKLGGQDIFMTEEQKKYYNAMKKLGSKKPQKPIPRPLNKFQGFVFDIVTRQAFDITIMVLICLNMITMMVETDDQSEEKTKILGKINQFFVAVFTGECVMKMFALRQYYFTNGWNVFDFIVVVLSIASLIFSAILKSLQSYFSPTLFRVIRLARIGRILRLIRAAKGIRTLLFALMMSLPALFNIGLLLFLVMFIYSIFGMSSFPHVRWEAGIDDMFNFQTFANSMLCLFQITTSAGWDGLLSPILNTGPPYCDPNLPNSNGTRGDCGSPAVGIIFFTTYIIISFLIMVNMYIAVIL

Row | SMILES | pIC50 [1] | pIC50 [2]
1 | COc1c(C2C(C(=O)Nc3ccn4nnnc4c3)OC(C)(C(F)(F)F)C2C)ccc(F)c1C (racemic) [Compound 132, 3-(4-fluoro-2-methoxy-3-methyl-phenyl)-4,5-dimethyl-N-(tetrazolo[1,5-a]pyridin-7-yl)-5-(trifluoromethyl)tetrahydrofuran-2-carboxamide] | > 8.00 | –
2 | Cc1nn(C(F)F)cc1NC(=O)[C@@H]1O[C@@](C)(C(F)(F)F)[C@@H](C)[C@H]1c1ccc(F)c(F)c1CN1CC(O)C1 (racemic) [Compound 673, rac-(2R,3S,4S,5R)-3-(3,4-difluoro-2-((3-hydroxyazetidin-1-yl)methyl)phenyl)-N-(1-(difluoromethyl)-3-methyl-1H-pyrazol-4-yl)-4,5-dimethyl-5-(trifluoromethyl)tetrahydrofuran-2-carboxamide] | 6.00 to 7.00 | –
3 | CCOc1c([C@H]2[C@H](C(=O)Nc3ccnc([S@@](C)(=O)=NC)c3)O[C@@](C)(C(F)(F)F)[C@H]2C)ccc(F)c1F (relative stereo) [Compound 12, rel-(2R,3S,4S,5R)—N-(2-(N,S-dimethylsulfonimidoyl)pyridin-4-yl)-3-(2-ethoxy-3,4-difluorophenyl)-4,5-dimethyl-5-(trifluoromethyl)tetrahydrofuran-2-carboxamide] | > 8.00 | –
4 | COc1c([C@@H]2[C@@H](C(=O)Nc3ccnc(S(C)(=N)=O)c3)O[C@](C)(C(F)(F)F)[C@@H]2C)ccc(F)c1C (relative stereo) [Compound 150, rel-(2S,3R,4R,5S)-3-(4-fluoro-2-methoxy-3-methylphenyl)-4,5-dimethyl-N-(2-(S-methylsulfonimidoyl)pyridin-4-yl)-5-(trifluoromethyl)tetrahydrofuran-2-carboxamide] | 6.00 to 7.00 | –
5 | COc1c([C@H]2[C@H](C(=O)Nc3ccnc(S(C)(=N)=O)c3)O[C@@](C)(C(F)(F)F)[C@H]2C)ccc(F)c1C (relative stereo) [Compound 151, rel-(2R,3S,4S,5R)-3-(4-fluoro-2-methoxy-3-methylphenyl)-4,5-dimethyl-N-(2-(S-methylsulfonimidoyl)pyridin-4-yl)-5-(trifluoromethyl)tetrahydrofuran-2-carboxamide] | > 8.00 | –
6 | COc1c([C@H]2[C@H](C(=O)Nc3cc(O[C@@H]4COC[C@@H]4O)ncn3)O[C@@](C)(C(F)(F)F)[C@H]2C)ccc(F)c1F (relative stereo) [Compound 238, (2R*,3S*,4S*,5R*)-3-(3,4-difluoro-2-methoxyphenyl)-N-(6-((cis-4-hydroxytetrahydrofuran-3-yl)oxy)pyrimidin-4-yl)-4,5-dimethyl-5-(trifluoromethyl)tetrahydrofuran-2-carboxamide] | 7.00 to 8.00 | –
7 | COc1c([C@H]2[C@H](C(=O)N[C@@H]3C[C@H]3c3cnn(C)c3)O[C@@](C)(C(F)(F)F)[C@H]2C)ccc(F)c1F (relative stereo) [Compound 266, rel-(2R*,3S*,4S*,5R*)-3-(3,4-difluoro-2-methoxyphenyl)-4,5-dimethyl-N-((1R,2S)-2-(1-methyl-1H-pyrazol-4-yl)cyclopropyl)-5-(trifluoromethyl)tetrahydrofuran-2-carboxamide] | ≤ 6.00 | –
8 | COc1c([C@H]2[C@H](C(=O)N[C@H]3C[C@@H]3c3cnn(C)c3)O[C@@](C)(C(F)(F)F)[C@H]2C)ccc(F)c1F (relative stereo) [Compound 267, rel-(2R*,3S*,4S*,5R*)-3-(3,4-difluoro-2-methoxyphenyl)-4,5-dimethyl-N-((1S,2R)-2-(1-methyl-1H-pyrazol-4-yl)cyclopropyl)-5-(trifluoromethyl)tetrahydrofuran-2-carboxamide] | > 8.00 | –
9 | CN=S(C)(=O)c1cc(NC(=O)[C@H]2O[C@](C)(C(F)(F)F)[C@H](C)[C@@H]2c2ccc(F)c(F)c2OC)ccn1 (relative stereo) [Compound 527, rel-(2S,3R,4R,5S)-3-(3,4-difluoro-2-methoxyphenyl)-N-(2-(N,S-dimethylsulfonimidoyl)pyridin-4-yl)-4,5-dimethyl-5-(trifluoromethyl)tetrahydrofuran-2-carboxamide] | 6.00 to 7.00 | –
10 | CN=S(C)(=O)c1cc(NC(=O)[C@@H]2O[C@@](C)(C(F)(F)F)[C@@H](C)[C@H]2c2ccc(F)c(F)c2OC)ccn1 (relative stereo) [Compound 528, rel-(2R,3S,4S,5R)-3-(3,4-difluoro-2-methoxyphenyl)-N-(2-(N,S-dimethylsulfonimidoyl)pyridin-4-yl)-4,5-dimethyl-5-(trifluoromethyl)tetrahydrofuran-2-carboxamide] | > 8.00 | –
11 | Cc1nn(C(F)F)cc1NC(=O)[C@@H]1O[C@@](C)(C(F)(F)F)[C@@H](C)[C@H]1c1ccc(F)c(F)c1C(C)O (relative stereo) [Compound 680, rac-(2R*,3S*,4S*,5R*)-3-(3,4-difluoro-2-(1-hydroxyethyl)phenyl)-N-(1-(difluoromethyl)-3-methyl-1H-pyrazol-4-yl)-4,5-dimethyl-5-(trifluoromethyl)tetrahydrofuran-2-carboxamide] | 7.00 to 8.00 | –

The remaining lines, values ahead:

Row | pIC50 [1] | pIC50 [2] | SMILES
12 | > 8.00 | – | COc1c([C@H]2[C@H](C(=O)Nc3ccnc(C(C)(O)CO)c3)O[C@@](C)(C(F)(F)F)[C@H]2C)ccc(F)c1F (relative stereo) [Compound 3, rel-(2R*,3S*,4S*,5R*)-3-(3,4-difluoro-2-methoxyphenyl)-N-(2-(1,2-dihydroxypropan-2-yl)pyridin-4-yl)-4,5-dimethyl-5-(trifluoromethyl)tetrahydrofuran-2-carboxamide]
13 | 6.00 to 7.00 | – | CCOc1c([C@@H]2[C@@H](C(=O)Nc3ccnc(S(C)(=N)=O)c3)O[C@](C)(C(F)(F)F)[C@@H]2C)ccc(F)c1C (relative stereo) [Compound 124, rel-(2S,3R,4R,5S)-3-(2-ethoxy-4-fluoro-3-methylphenyl)-4,5-dimethyl-N-(2-(S-methylsulfonimidoyl)pyridin-4-yl)-5-(trifluoromethyl)tetrahydrofuran-2-carboxamide]
14 | > 8.00 | – | CCOc1c([C@H]2[C@H](C(=O)Nc3ccnc(S(C)(=N)=O)c3)O[C@@](C)(C(F)(F)F)[C@H]2C)ccc(F)c1C (relative stereo) [Compound 125, rel-(2R,3S,4S,5R)-3-(2-ethoxy-4-fluoro-3-methylphenyl)-4,5-dimethyl-N-(2-(S-methylsulfonimidoyl)pyridin-4-yl)-5-(trifluoromethyl)tetrahydrofuran-2-carboxamide]
15 | – | ≤ 6.00 | COc1c([C@@H]2[C@@H](C(=O)Nc3cc[n+]([O-])c(C(O)CO)c3)O[C@](C)(C(F)(F)F)[C@@H]2C)ccc(F)c1C (relative stereo) [Compound 138, rel-2-(1,2-dihydroxyethyl)-4-((2S,3R,4R,5S)-3-(4-fluoro-2-methoxy-3-methylphenyl)-4,5-dimethyl-5-(trifluoromethyl)tetrahydrofuran-2-carboxamido)pyridine 1-oxide]
16 | – | 7.00 to 8.00 | COc1c([C@@H]2C[C@](C)(C(F)(F)F)O[C@H]2C(=O)Nc2ccnc([C@@H](O)[C@H](C)O)c2)ccc(F)c1F (relative stereo) [Compound 700, rel-(2R,3S,5R)-3-(3,4-difluoro-2-methoxyphenyl)-N-(2-((1R,2S)-1,2-dihydroxypropyl)pyridin-4-yl)-5-methyl-5-(trifluoromethyl)tetrahydrofuran-2-carboxamide]
